For series [1], the system named is four DIPG cell lines. Nature of the series: viability of DIPG cell lines treated in vitro with TG02. It counts as cell-based, human. How it is done: (§1) Direct cell counts were performed using the Countess II FL Automated Cell Counter (ThermoFisher Scientific). Alamar blue viability (ThermoFisher Scientific) and the 5-bromo-2′-deoxyuridine (BrdU) incorporated cell proliferation assay (Cell Signaling Technology Cat #6813) were performed using the manufacturer's standard protocol. EC50 curve analysis was performed using raw fluorescent Alamar blue values that were inputted into PRISM 7.0. Drug concentrations were log 10 transformed and values normalized to percent viability with respect to vehicle treated cells. EC50 values were interpolated from a log inhibitor vs. normalized response with variable slope using a least square fit model.

In series [2] the target is CDK3 (Homo sapiens, UniProt Q00526). Particulars: Source Millipore; 10-point titration in duplicates, done once; cited from earlier work.
Series [3] concerns the target Fms (Homo sapiens, UniProt P07333). The conditions noted are these: Source Millipore; 10-point titration in duplicates, done once; cited from earlier work.
Series [4] concerns DIPG-007, DIPG-IV, and SF8628 cells. Briefly: direct Trypan-Blue automated cell count. It counts as cell-based, human. Particulars: 50 nM of TG02, 9 days of treatment, vs vehicle. Here is the method: FIGS. 5A-5K provide that pharmacological inhibition of ERK5 triggered cell death and apoptosis in DIPG cells. […] (5C-5E).
as §1

For series [5], the target named is PKA (Homo sapiens, UniProt P17612). Particulars: cited from earlier work.
The target of series [6] is PAK3 (Homo sapiens, UniProt O75914). Particulars: cited from earlier work.
The subject of series [7] is normal astrocytes or neural stem cells. Briefly: viability of normal cells treated with TG02. The conditions noted are these: nM ranges. Type of series: cell-based, human. The text has this:
Brain gliomas express high levels of ERK5 (FIG. 29).

For series [8], the target named is MKK6 (Homo sapiens, UniProt P52564). The conditions noted are these: cited from earlier work.
Series [9] concerns the target Lck (Homo sapiens, UniProt P06239). Particulars: Source Millipore; 10-point titration in duplicates, done once; cited from earlier work.
Series [10] concerns the target ALK (Homo sapiens, UniProt Q9UM73). The conditions noted are these: cited from earlier work.
Series [11] deals with TLK2 (Homo sapiens, UniProt Q86UE8). Particulars: cited from earlier work.
The conditions of series [12]: cited from earlier work.
Series [13] addresses MEK1 (Homo sapiens, UniProt Q02750). The conditions noted are these: cited from earlier work.
Series [14] concerns the target EGFR (Homo sapiens, UniProt P00533). The conditions noted are these: cited from earlier work.
The target of series [15] is IRAK4 (Homo sapiens, UniProt Q9NWZ3). The conditions noted are these: cited from earlier work.
Series [16] addresses JNK1 (Homo sapiens, UniProt P45983). The conditions noted are these: cited from earlier work.
The target of series [17] is PKBα (Homo sapiens, UniProt P31749). Particulars: cited from earlier work.

We go through one compound from patent US11173160B2 (UNIVERSITY OF PITTSBURGH—OF THE COMMONWEALTH SYSTEM OF …, priority 2019, dated 2021).

Read-outs that look alike come from different tables or passages of the source.

Sequence of MEK1 (Q02750 whole entry): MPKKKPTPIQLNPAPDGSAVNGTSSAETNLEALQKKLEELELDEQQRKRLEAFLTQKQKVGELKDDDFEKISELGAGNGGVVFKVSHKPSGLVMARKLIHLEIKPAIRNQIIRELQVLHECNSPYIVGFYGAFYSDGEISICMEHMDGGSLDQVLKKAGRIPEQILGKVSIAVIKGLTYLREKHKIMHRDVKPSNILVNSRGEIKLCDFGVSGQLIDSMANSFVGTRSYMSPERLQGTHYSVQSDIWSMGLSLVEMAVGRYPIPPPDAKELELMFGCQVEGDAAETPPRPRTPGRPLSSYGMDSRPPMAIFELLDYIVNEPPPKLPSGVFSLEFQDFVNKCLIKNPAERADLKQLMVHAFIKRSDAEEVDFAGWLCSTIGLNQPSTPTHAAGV
Sequence of IRAK4 (Q9NWZ3 whole entry): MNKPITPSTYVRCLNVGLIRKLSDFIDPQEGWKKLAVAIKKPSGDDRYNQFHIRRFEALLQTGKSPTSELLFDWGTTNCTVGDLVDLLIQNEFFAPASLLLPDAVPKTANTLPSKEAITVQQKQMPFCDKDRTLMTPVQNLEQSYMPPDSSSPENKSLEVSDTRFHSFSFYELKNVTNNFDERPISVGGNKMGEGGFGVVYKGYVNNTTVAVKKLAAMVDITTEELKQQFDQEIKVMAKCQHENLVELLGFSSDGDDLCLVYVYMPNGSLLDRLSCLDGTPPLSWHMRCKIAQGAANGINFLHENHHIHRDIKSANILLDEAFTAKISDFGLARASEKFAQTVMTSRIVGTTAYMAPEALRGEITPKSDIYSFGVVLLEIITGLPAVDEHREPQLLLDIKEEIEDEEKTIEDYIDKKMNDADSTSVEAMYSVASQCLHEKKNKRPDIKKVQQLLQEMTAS
Sequence of PAK3 (O75914 whole entry): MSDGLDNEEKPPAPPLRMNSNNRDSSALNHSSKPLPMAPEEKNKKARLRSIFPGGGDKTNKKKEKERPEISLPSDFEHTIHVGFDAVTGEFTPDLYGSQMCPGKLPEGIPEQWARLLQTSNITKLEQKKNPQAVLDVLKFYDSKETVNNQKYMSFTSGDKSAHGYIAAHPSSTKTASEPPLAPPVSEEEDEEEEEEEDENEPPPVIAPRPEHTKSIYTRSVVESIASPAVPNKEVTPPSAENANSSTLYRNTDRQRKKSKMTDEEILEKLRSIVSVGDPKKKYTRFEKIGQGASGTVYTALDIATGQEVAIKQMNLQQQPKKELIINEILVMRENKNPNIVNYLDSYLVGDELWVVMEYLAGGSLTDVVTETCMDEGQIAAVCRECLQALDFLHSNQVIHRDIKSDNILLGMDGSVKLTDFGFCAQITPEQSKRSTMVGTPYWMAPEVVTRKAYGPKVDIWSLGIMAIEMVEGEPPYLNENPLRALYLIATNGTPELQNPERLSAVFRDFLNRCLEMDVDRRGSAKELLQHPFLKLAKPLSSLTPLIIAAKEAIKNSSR
Sequence of MKK6 (P52564 whole entry): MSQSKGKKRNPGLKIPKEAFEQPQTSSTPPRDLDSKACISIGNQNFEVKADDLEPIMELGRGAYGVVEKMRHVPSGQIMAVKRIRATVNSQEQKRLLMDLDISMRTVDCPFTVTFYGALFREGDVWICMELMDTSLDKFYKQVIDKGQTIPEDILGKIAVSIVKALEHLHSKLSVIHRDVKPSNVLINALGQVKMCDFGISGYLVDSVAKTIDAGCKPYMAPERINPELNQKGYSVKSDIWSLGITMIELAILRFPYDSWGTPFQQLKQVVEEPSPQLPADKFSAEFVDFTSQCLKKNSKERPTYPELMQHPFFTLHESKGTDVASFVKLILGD
Sequence of TLK2 (Q86UE8 whole entry, species assumed): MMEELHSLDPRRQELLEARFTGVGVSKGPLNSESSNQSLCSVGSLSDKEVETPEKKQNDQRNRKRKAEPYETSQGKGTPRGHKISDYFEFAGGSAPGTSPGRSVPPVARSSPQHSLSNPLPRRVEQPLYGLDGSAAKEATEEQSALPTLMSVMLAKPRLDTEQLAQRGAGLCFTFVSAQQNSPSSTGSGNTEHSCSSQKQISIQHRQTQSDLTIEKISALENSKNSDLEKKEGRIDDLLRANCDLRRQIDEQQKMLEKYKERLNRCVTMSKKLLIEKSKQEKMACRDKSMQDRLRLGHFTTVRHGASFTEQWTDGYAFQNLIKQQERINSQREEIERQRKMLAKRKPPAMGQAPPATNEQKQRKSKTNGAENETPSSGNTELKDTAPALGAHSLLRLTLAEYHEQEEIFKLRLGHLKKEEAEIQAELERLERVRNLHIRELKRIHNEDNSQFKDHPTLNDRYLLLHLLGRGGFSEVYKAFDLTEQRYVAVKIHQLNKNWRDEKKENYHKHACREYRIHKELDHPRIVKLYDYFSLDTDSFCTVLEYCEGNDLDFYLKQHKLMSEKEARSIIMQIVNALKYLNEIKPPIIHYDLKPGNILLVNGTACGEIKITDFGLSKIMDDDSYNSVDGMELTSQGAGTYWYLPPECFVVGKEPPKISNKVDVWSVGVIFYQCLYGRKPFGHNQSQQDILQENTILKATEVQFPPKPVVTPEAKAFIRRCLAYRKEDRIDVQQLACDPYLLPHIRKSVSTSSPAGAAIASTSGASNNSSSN
Sequence of JNK1 (P45983 whole entry): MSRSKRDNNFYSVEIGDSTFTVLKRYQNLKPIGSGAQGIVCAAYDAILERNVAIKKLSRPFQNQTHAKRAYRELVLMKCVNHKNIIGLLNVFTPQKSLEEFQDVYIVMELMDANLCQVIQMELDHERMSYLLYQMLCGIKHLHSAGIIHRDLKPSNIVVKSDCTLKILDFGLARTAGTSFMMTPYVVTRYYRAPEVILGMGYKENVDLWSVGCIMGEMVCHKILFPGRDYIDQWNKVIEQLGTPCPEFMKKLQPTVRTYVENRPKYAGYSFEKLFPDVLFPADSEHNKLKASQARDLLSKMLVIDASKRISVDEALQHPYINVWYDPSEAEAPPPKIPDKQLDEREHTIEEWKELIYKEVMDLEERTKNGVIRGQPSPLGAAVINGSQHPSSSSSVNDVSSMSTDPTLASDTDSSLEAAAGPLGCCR
Sequence of Lck (P06239 whole entry): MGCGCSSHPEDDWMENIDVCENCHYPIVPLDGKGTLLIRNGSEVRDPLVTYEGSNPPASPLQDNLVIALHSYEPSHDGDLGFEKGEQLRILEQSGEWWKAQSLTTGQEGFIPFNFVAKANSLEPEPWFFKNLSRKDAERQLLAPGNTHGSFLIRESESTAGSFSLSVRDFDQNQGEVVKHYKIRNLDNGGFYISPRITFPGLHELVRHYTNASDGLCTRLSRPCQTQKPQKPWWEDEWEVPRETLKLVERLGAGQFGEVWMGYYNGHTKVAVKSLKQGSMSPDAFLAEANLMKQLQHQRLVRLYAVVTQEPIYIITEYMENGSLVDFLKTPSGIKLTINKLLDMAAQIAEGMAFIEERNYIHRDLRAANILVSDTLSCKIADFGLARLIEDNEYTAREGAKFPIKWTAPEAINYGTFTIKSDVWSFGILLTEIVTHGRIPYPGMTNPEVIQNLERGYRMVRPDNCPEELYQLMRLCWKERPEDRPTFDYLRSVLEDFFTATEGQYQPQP
Sequence of CDK3 (Q00526 whole entry): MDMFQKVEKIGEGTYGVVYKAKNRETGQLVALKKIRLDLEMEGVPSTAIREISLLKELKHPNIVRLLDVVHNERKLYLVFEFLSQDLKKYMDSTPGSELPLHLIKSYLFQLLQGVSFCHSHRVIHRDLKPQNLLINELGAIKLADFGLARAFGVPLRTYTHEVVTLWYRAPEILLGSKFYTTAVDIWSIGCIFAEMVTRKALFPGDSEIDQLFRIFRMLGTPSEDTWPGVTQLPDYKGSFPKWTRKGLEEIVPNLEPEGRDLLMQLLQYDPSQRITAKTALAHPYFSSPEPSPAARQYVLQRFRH
Sequence of CDK3 (P24864 whole entry partner): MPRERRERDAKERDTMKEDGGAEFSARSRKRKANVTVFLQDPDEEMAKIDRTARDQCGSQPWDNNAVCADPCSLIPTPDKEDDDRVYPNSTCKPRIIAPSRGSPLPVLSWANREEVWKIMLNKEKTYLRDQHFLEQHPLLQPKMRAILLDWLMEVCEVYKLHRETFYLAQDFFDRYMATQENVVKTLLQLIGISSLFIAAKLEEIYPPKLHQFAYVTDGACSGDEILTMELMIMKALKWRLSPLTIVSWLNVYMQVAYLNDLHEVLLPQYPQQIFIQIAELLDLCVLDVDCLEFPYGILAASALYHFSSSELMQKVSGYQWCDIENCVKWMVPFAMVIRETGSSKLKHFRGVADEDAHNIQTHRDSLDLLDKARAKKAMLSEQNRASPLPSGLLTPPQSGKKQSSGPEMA
Sequence of PKBα (P31749 whole entry, species assumed): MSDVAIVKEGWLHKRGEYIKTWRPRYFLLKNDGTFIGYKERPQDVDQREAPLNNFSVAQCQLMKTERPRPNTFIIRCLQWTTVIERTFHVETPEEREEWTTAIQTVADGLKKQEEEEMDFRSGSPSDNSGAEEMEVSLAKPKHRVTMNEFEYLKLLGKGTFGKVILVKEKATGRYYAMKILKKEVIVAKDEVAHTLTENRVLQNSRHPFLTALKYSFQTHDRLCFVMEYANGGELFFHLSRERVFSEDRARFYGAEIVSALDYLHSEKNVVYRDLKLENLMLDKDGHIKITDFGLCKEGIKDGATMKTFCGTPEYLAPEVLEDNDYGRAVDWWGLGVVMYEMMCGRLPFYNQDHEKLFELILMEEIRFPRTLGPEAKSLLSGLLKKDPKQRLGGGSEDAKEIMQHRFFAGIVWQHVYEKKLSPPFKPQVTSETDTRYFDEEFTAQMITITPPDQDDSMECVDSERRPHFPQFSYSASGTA

For `CN1C/C=C/CCOc2cccc(c2)-c2ccnc(n2)Nc2cccc(c2)C1` [TG02, (16E)-14-methyl-20-oxa-5,7,14,27-tetraazatetracyclo[19.3.1.12,6.18,12]heptacosa-1(25),2(27),3,5,8(26),9,11,16,21,23-decaene], the IC50 – broadly, the concentration that gives 50% inhibition – is about 100 nM in series [1] (Homo sapiens, read-out: IC50 of TG02 in vitro against DIPG cell lines, approximate); 8 nM in series [2]; 27 nM in series [3]; 11 nM in [9]. Besides, the EC50 (in general, the midpoint of the concentration-response curve) in series [1] (Homo sapiens, median of four DIPG cell lines in vitro, read-out: median EC50 (decreased viability)) was 75 nM; in [1] (Homo sapiens, range over four DIPG cell lines in vitro, read-out: EC50 range (decreased viability)), 60 to 93 nM. Further, the apoptosis result in [1] (four DIPG cell lines in vitro) is recorded as “increased apoptosis”. Further, the cell number result in series [4] is recorded as “significant decreases in cell number”. Also, the “inhibition at 100 nm” value in series [5], in [6], in series [8], in [10], in series [11] and in [13] was “less than 50%” in each case. The “inhibition at 100 nm” value in series [14], in series [15], in [16] and in series [17] was “less than 50%” throughout. In [7], the “toxicity to normal cells” value is “not toxic”. The “peak concentration in plasma” value in [12] (adults, single dose of 200 mg) is 4,000 ng/mL. For the same compound, the “Cmax and AUC0-t dose dependence” value in series [12] (doses between 10 and 200 mg) is listed as “dose-proportional increase”. Besides, the t1/2 result in series [12] (in vivo) is listed as “approximately 18 hrs”.
